Data from article PMC12535076, “Neurotherapeutic effects of Vutiglabridin as a Paraoxonase-2 modulator in preclinical models of Parkinson’s disease” (Molecular Neurodegeneration, 2025).

Key:
shPON2-SH-SY5Y cells = test: Mitochondrial activity in PON2 knockdown (shPON2) and shSCR SH-SY5Y cells treated with MPP+; format: cell-based, human
Method: Human SH-SY5Y neuroblastoma cells (ATCC® (CRL-2266™; Manassas, VA, USA) were first cultured in Dulbecco’s Modified Eagle Medium (DMEM)/F12 supplemented with 10% fetal bovine serum (FBS), 100 U/mL penicillin, and 100 µg/mL streptomycin (complete media, CM) at 37 °C with 5% CO2. Cells (5 × 10^4 cells/well) then were cultured in 96-well plates for 24 h followed by incubation in serum-deficient media (SDM, culture media containing 0.5% FBS) for 16 h. Quiescent cells in SDM were incubated with 1 mM MPP^+ or dimethyl sulfoxide (DMSO) vehicle for 24 h, then treated with Vuti at the designated doses for 24 h. The treated cells were harvested according to the purpose and analyzed.
Lentiviral PON2 shRNA (h) (sc-62838) was purchased from Santa Cruz Co. (Santa Cruz, CA, USA). shRNA lentiviral particle transduction was performed according to the manufacturer’s protocol. Total RNA was isolated with a Trizol reagent (Invitrogen, Carlsbad, CA, USA). […] PON2 knockdown was verified by quantitative PCR, and the primers and methods used are described in the supplementary material.
A systemic cell-based mitochondrial function analysis system was established using SH-SY5Y cells in 96-well plates based on fluorescence detection methods as described previously. The assay system covers quantitative assays for methyl thiazyl tetrazolium-mitochondrial dehydrogenase activity (MTT), TMRE-based mitochondrial membrane potential (TMRE), ATP contents, and ROS of cells. […] Fluorescence intensities at 550 nm/580 nm for TMRE, at 510 nm/580 nm MitoSOX, or at 494 nm/522 nm for DCF-DA were normalized by Hoechst intensity at 355 nm/480 nm (Spectramax Gemini EM, Molecular Devices, Sunnyvale, CA, USA).
Endogenous OCR was measured in adherent SH-SY5Y cells using a Seahorse XF-24 Analyzer (Seahorse Bioscience, Billerica, MA, USA) following the manufacturer’s protocol with minor modifications. […] The OCR was calculated from 3-min measurement cycles and normalized to cell number.

[1] = test system: panel of a total of 225 mammalian proteins; test: In vitro safety (off-target) screening panel; conditions: 225 targets: ion channels, GPCR, nuclear receptors, kinases, enzymes, transporters; data not shown
Method: The overall safety of Vuti has been already established through human phase 1 clinical trial (NCT04732988, NCT04733001, NCT04703764). However, for its potential repositioning as a central nervous system (CNS)-targeting drug candidate, we performed a comprehensive neurotoxicity assessment of Vuti through in vitro safety screening. Interactions of Vuti were tested against an extensive panel of a total of 225 mammalian proteins, including ion channels, G-protein coupled receptors (GPCR), nuclear receptors, kinases, non-kinase enzymes, and drug transporters, cardiac function, and drug-drug interactions. Additionally, these also examined whether Vuti interacted with reported direct targets of glabridin [37], such as estrogen receptor, peroxisome proliferator-activated receptor gamma (PPARγ), and cyclooxygenase 2 (COX-2).

CCOc1ccc(C2COc3c(ccc4c3CCC(C)(C)O4)C2)c(O)c1 (stereo not shown) [Vuti, Vutiglabridin]
MPP+-induced mitochondrial damages in shSCR cells (shPON2-SH-SY5Y cells; control scrambled shRNA cells, 1 mM MPP+ then 1 nM Vuti): significantly restored | OCR (basal respiration, ATP turnover rate, maximum respiratory capacity) in shPON2 cells (shPON2-SH-SY5Y cells; shPON2 cells, 1 mM MPP+ 20 h then 1 nM Vuti 24 h): failed to restore | effects on mitochondria function (MTT, ATP content, TMRE, DCF-DA-ROS, MitoSOX-ROS) in shPON2 cells (shPON2-SH-SY5Y cells; shPON2 infected cells, 1 mM MPP+ 20 h then 1 nM Vuti 24 h): considerably reduced or almost completely abolished | off-target interactions [1]: no significant unexpected targets
